Columns and labels:
[1] = target: Telomerase reverse transcriptase (Homo sapiens, UniProt O14746); assay: Concentration required to inhibit 50% of telomerase activity
A2780 = assay: Concentration required to inhibit 50% of human carcinoma A2780 cell lines; type: functional, cell-based
SK-OV-3 = assay: Concentration required to inhibit 50% of human carcinoma SKOV3 cell lines; type: functional, cell-based
[2] = Concentration required to inhibit 50% of human carcinoma CH1 cell lines; type: functional, cell-based

Telomerase reverse transcriptase, sequence (O14746 whole entry): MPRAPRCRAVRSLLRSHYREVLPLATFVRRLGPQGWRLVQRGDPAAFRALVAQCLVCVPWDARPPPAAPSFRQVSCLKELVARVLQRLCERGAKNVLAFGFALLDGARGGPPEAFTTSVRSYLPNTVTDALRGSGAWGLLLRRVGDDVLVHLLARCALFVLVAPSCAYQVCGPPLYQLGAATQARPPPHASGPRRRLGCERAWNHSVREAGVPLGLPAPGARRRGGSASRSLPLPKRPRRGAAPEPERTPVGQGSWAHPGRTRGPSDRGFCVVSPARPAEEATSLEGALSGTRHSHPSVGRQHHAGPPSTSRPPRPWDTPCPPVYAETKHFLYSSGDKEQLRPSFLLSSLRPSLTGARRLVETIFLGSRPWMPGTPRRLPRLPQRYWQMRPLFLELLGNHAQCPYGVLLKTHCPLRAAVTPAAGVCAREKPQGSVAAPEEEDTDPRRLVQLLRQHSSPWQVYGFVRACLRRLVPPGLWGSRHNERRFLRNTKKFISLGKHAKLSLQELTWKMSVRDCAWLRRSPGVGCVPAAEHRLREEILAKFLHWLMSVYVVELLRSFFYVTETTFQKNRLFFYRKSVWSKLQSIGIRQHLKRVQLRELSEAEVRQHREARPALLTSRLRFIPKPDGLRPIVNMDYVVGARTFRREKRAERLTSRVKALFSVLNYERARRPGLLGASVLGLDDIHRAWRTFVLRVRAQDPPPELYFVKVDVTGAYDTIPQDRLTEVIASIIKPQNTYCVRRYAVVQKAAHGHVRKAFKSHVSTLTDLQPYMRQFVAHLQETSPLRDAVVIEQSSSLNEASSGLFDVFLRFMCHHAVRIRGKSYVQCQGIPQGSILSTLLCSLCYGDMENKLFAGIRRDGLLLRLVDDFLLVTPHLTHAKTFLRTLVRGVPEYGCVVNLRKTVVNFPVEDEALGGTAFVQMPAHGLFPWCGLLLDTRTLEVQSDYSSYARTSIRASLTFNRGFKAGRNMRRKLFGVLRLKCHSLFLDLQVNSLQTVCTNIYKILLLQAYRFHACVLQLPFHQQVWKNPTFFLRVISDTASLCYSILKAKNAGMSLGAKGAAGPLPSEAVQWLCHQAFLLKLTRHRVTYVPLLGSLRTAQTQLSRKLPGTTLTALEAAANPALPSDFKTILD

Row | SMILES | EC50 [1] [µM] | IC50 (A2780) [µM] | IC50 (SK-OV-3) [µM] | IC50 [2] [µM]
1 | O=C(CCN1CCCCC1CO)Nc1ccc2c(O)c3cc(NC(=O)CCN4CCCCC4CO)ccc3nc2c1 (centres undefined) | 0.2 | 11.2 | 25 | 25
2 | CC1CCCCN1CCC(=O)Nc1ccc2c(O)c3ccc(NC(=O)CCN4CCCCC4C)cc3nc2c1 (centres undefined) | 2.3 | 13 | 10.5 | 11
3 | CC1CCN(CCC(=O)Nc2ccc3c(O)c4ccc(NC(=O)CCN5CCC(C)CC5)cc4nc3c2)CC1 | 1.7 | 3 | 5.6 | 3
4 | CCC1CCCCN1CCC(=O)Nc1ccc2c(O)c3ccc(NC(=O)CCN4CCCCC4CC)cc3nc2c1 (centres undefined) | 2.3 | 13 | 12 | 11.8
5 | O=C(CCN1CCCC1)Nc1ccc2c(O)c3ccc(NC(=O)CCN4CCCC4)cc3nc2c1 | 8.1 | > 25 | > 25 | > 25
6 | O=C(CCN1CCCCC1)Nc1ccc2c(O)c3cc(NC(=O)CCN4CCCCC4)ccc3nc2c1 | 0.4 | 5.6 | 25 | 25
7 | c1cc2cc3ccc(N4CCCC4)cc3nc2cc1N1CCCC1 | 5.2 | 27 | 2.6 | 8.2
8 | O=C(CCN1CCC(O)CC1)Nc1ccc2c(O)c3cc(NC(=O)CCN4CCC(O)CC4)ccc3nc2c1 | 0.2 | 3.5 | 25 | 25
9 | O=C(CCN1CCCCC1)Nc1ccc2nc3ccc(NC(=O)CCN4CCCCC4)cc3c(O)c2c1 | 1.9 | > 25 | > 25 | > 25
10 | CN(C)CCC(=O)Nc1ccc2c(O)c3ccc(NC(=O)CCN(C)C)cc3nc2c1 | 4.3 | > 25 | > 25 | > 25
11 | CC1CCCCN1CCC(=O)Nc1ccc2nc3ccc(NC(=O)CCN4CCCCC4C)cc3c(O)c2c1 (centres undefined) | 2.3 | > 25 | > 25 | > 25
12 | CCN(CC)CCC(=O)Nc1ccc2c(O)c3cc(NC(=O)CCN(CC)CC)ccc3nc2c1 | 0.7 | 16 | 25 | 25
13 | CN(C)CCC(=O)Nc1ccc2nc3ccc(NC(=O)CCN(C)C)cc3c(O)c2c1 | 0.6 | > 25 | > 25 | > 25
14 | CCN(CC)c1ccc2cc3ccc(N(CC)CC)cc3nc2c1 | 5.8 | 0.6 | 2.3 | 2.5
15 | O=C(CCN1CCCC1)Nc1ccc2nc3ccc(NC(=O)CCN4CCCC4)cc3c(O)c2c1 | 5.8 | > 25 | > 25 | > 25
16 | c1cc2cc3ccc(N4CCCCC4)cc3nc2cc1N1CCCCC1 | 2.8 | 1.7 | 0.5 | 2.3
17 | CCN1CCN(CCC(=O)Nc2ccc3c(O)c4ccc(NC(=O)CCN5CCN(CC)CC5)cc4nc3c2)CC1 | 1.9 | 11.8 | 10.5 | 11
18 | O=C(CCN1CCCCC1)Nc1ccc2c(O)c3ccc(NC(=O)CCN4CCCCC4)cc3nc2c1 | 5.9 | 19 | 21 | 13
19 | O=C(CCN1CCOCC1)Nc1ccc2c(O)c3ccc(NC(=O)CCN4CCOCC4)cc3nc2c1 | 4.9 | > 25 | > 25 | > 25
20 | CC1CCN(CCC(=O)Nc2ccc3c(O)c4cc(NC(=O)CCN5CCC(C)CC5)ccc4nc3c2)CC1 | 0.2 | > 25 | 25 | 25
21 | CCN(CC)CCC(=O)Nc1ccc2c(O)c3ccc(NC(=O)CCN(CC)CC)cc3nc2c1 | 5.7 | > 25 | > 25 | > 25
22 | O=C(CCN1CCC(O)CC1)Nc1ccc2nc3ccc(NC(=O)CCN4CCC(O)CC4)cc3c(O)c2c1 | 2.3 | > 25 | > 25 | > 25
23 | O=C(CCN1CCC(O)CC1)Nc1ccc2c(O)c3ccc(NC(=O)CCN4CCC(O)CC4)cc3nc2c1 | 1.7 | > 25 | > 25 | > 25
24 | CN1CCN(CCC(=O)Nc2ccc3nc4ccc(NC(=O)CCN5CCN(C)CC5)cc4c(O)c3c2)CC1 | 1.9 | > 25 | > 25 | > 25
25 | CC[n+]1c(-c2ccccc2)c2cc(N)ccc2c2ccc(N)cc21 [HOMIDIUM BROMIDE] | – | 0.1 | 4.5 | 0.4
